From patent US20250041306A1, “TARGETED PROTEASE DEGRADATION (TED) PLATFORM” (EUBULUS BIOTHERAPEUTICS INC., priority 2021, published 2025)
Like-named read-outs stand apart in the source and are kept apart here. Numbered stars: 1 amine (or outer) side, 2 acyl side, 3 side chain; on linkers, the order of the positions; unused ones are H or OH. Bridge positions count the residues as written; N and C are the ends. Square brackets hold non-standard residues; d marks the D form. Peptide text beside a SMILES is read from it. I, II: the chains in the order shown. * marks the point of attachment. X1 = NC(=O)c1ccccc1Nc1nc(Nc2ccc(N3CCN(C(=O)NC4CCC(N(CCC#Cc5ccc6c(c5)CN(C5CCC(=O)NC5=O)C6=O)C(=O)OCCS*)CC4)CC3)cc2)ncc1Cl; X2 = NC(=O)c1ccccc1Nc1nc(Nc2ccc(N3CCN(C(=O)NC4CCC(N(CCC#Cc5ccc6c(c5)CN(C5CCC(=O)NC5=O)C6=O)*)CC4)CC3)cc2)ncc1Cl; Succinimide(1-C2H4CO,3-yl) = O=C1CC([*:1])C(=O)N1CCC(=O)[*:2]; PABC = O=C(OCc1ccc(N[*:1])cc1)[*:2]; Thr(ol) = C[C@@H](O)[C@H](N)CO

How the values were obtained:
Assay type in all cases: cell-based
[1] = test system: Human Small Cell Lung Cancer NCI-H82; experiment: Cell proliferation experiment (Alarm blue), H82
Description: (§1) The cells were cultured in conventional ways, and the cells should be passed for at least 2 generations before plating. Cells at the logarithmic growth phase were collected, prepared into single cell suspensions and counted. The concentration of cells was adjusted to desired concentration, and cells were inoculated into a 96-well cell culture plate at 100 μl per well. 100 μL of complete medium of the test compound were added to each well, 2 replicate wells for each concentration were set up, and diluted with a 5-fold gradient, and continued to culture for 72 h. All cells were subjected to EC50 test for corresponding samples.
(§2) The fluorescence intensity of each well was detected using the Alarm blue method, and IC50 was calculated.
(§3) IC50 was calculated according to the following formula:
(§4) [formula] • wherein Min, Max and Slope represent the minimum, maximum and slope respectively.

[2] = test system: human gastric carcinoma cells N87; experiment: Cell proliferation experiment (Alarm blue), N87
Description: as §1, §2, §3, §4

[3] = test system: Human Colon Cancer cells Colo205; experiment: Cell proliferation experiment (Alarm blue), Colo205
Description: as §1, §2, §3, §4

[4] = test system: Human Small Cell Lung Cancer H69; experiment: Cell proliferation experiment (Alarm blue), H69
Description: as §1, §2, §3, §4

Human Colon Cancer HT-29 = experiment: Cell proliferation experiment (Alarm blue), HT-29
Description: as §1, §2, §3, §4

[5] = H82 cells, 72 h culture, read-out: Anti cell proliferative activity EC50, H82
[6] = N87 cells, 72 h culture, read-out: Anti cell proliferative activity EC50, N87
[7] = Colo205 cells, 72 h culture, read-out: Anti cell proliferative activity EC50, Colo205
[8] = H69 cells, 72 h culture, read-out: Anti cell proliferative activity EC50, H69
[9] = HT-29 cells, 72 h culture, read-out: Anti cell proliferative activity EC50, HT-29

Row | EC50 ([1]; 72 h) | EC50 ([2]; 72 h) | EC50 ([3]; 72 h) | EC50 ([4]; 72 h) | EC50 (Human Colon Cancer HT-29; 72 h) | Compound | EC50 [1, 5] | EC50 [2, 6] | EC50 [3, 7] | EC50 [4, 8] | EC50 (Human Colon Cancer HT-29; [9]) | further results
1 |  |  |  |  |  | CNC(=O)c1ccccc1Nc1nc(Nc2ccc(N3CCN(C(=O)N[C@H]4CC[C@@H](N(CCC#Cc5ccc6c(c5)CN(C5CCC(=O)NC5=O)C6=O)C(=O)OCCSSC[C@H](N)C(=O)N[C@H](Cc5ccccc5)C(=O)N[C@H]5CSSC[C@@H](C(=O)N[C@H](CO)[C@@H](C)O)NC(=O)[C@H]([C@@H](C)O)NC(=O)[C@H](CCCCN)NC(=O)[C@@H](Cc6c[nH]c7ccccc67)NC(=O)[C@H](Cc6ccccc6)NC5=O)CC4)CC3)cc2)ncc1Cl (stereo partly shown) [UB-181299] | 246 nM | 679 nM | 302 nM | > 1000 nM | > 1000 nM | 
2 |  |  |  |  |  | NC(=O)c1ccccc1Nc1nc(Nc2ccc(N3CCN([C@H]4CC[C@@H](NCCC#Cc5ccc6c(c5)CN(C5CCC(=O)NC5=O)C6=O)CC4)CC3)cc2)ncc1Cl (stereo partly shown) [UB-181315] |  |  |  |  |  | EC50 ([1]; Homo sapiens, NCI-H82, H82 cells, 72 h culture, read-out: Anti cell proliferative activity EC50, H82): 314 nM; EC50 ([2]; Homo sapiens, N87 cells, 72 h culture, read-out: Anti cell proliferative activity EC50, N87): > 1000 nM; EC50 ([3]; Homo sapiens, COLO 205, Colo205 cells, 72 h culture, read-out: Anti cell proliferative activity EC50, Colo205): 723 nM; EC50 ([4]; Homo sapiens, NCI-H69, H69 cells, 72 h culture, read-out: Anti cell proliferative activity EC50, H69): > 1000 nM; EC50 (Human Colon Cancer HT-29; Homo sapiens, HT-29 cells, 72 h culture, read-out: Anti cell proliferative activity EC50, HT-29): > 1000 nM
3 | 171 nM | > 1000 nM | 239 nM | > 1000 nM | > 1000 nM | CNC(=O)c1ccccc1Nc1nc(Nc2ccc(N3CCN(C(=O)N[C@H]4CC[C@@H](N(CCC#Cc5ccc6c(c5)CN(C5CCC(=O)NC5=O)C6=O)C(=O)OCCSSC[C@H](NC(=O)[C@H](CC(=O)O)NC(=O)[C@H](CC(=O)O)NC(=O)[C@H](CCCNC(=N)N)NC(=O)[C@H](CC(=O)O)NC(=O)CCC(NC(=O)c5ccc(NCc6cnc7nc(N)[nH]c(=O)c7n6)cc5)C(=O)O)C(=O)O)CC4)CC3)cc2)ncc1Cl (stereo partly shown) [UB-181321] |  |  |  |  |  | 
4 |  |  |  |  |  | N=C(N)NCCC[C@H](NC(=O)[C@H](CC(=O)O)NC(=O)CC[C@H](NC(=O)c1ccc(NCc2cnc3nc(N)[nH]c(=O)c3n2)cc1)C(=O)O)C(=O)N[C@@H](CC(=O)O)C(=O)N[C@@H](CC(=O)O)C(=O)N[C@@H](CSSCCOC(=O)N(CCC#Cc1ccc2c(c1)CN(C1CCC(=O)NC1=O)C2=O)C1CCC(NC(=O)N2CCN(c3ccc(Nc4ncc(Cl)c(Nc5ccccc5C(N)=O)n4)cc3)CC2)CC1)C(=O)O (stereo partly shown) [UB-181327] | 283 nM | > 1000 nM | 243 nM | > 1000 nM | 855 nM | 
5 | > 1000 nM | > 1000 nM | > 1000 nM | > 1000 nM | > 1000 nM | CC[C@@H]1C(=O)N(C)c2cnc(Nc3ccc(-c4cn([C@H]5CC[C@@H](N(CCOCCC#Cc6cccc7c6CN(C6CCC(=O)NC6=O)C7=O)C(=O)OCCSSC[C@H](NC(=O)[C@H](CC(=O)O)NC(=O)[C@H](CC(=O)O)NC(=O)[C@H](CCCNC(=N)N)NC(=O)[C@H](CC(=O)O)NC(=O)CC[C@H](NC(=O)c6ccc(NCc7cnc8nc(N)[nH]c(=O)c8n7)cc6)C(=O)O)C(=O)O)CC5)nn4)cc3OC)nc2N1C1CCCC1 (stereo partly shown) [UB-181336] |  |  |  |  |  | 
6 | 183 nM | 175 nM | 33.1 nM | 79.3 nM | 233 nM | CC[C@@H]1C(=O)N(C)c2cnc(Nc3ccc(-c4cn([C@H]5CC[C@@H](N(CCOCCC#Cc6cccc7c6CN(C6CCC(=O)NC6=O)C7=O)C(=O)OCc6ccc(NC(=O)[C@H](CC(N)=O)NC(=O)[C@H](C)NC(=O)[C@H](C)NC(=O)CCCCCN7C(=O)CC(SC[C@H](NC(=O)[C@H](CC(=O)O)NC(=O)[C@H](CC(=O)O)NC(=O)[C@H](CCCNC(=N)N)NC(=O)[C@H](CC(=O)O)NC(=O)CCC(NC(=O)c8ccc(NCc9cnc%10nc(N)[nH]c(=O)c%10n9)cc8)C(=O)O)C(=O)O)C7=O)cc6)CC5)nn4)cc3OC)nc2N1C1CCCC1 (stereo partly shown) [UB-181337] |  |  |  |  |  | 
7 |  |  |  |  |  | CC[C@@H]1C(=O)N(C)c2cnc(Nc3ccc(-c4cn([C@H]5CC[C@@H](N(CCOCCC#Cc6cccc7c6CN(C6CCC(=O)NC6=O)C7=O)C(=O)OCCSSC[C@H](NC(=O)CC[C@H](NC(=O)c6ccc(NCc7cnc8nc(N)[nH]c(=O)c8n7)cc6)C(=O)O)C(=O)N[C@H](Cc6ccccc6)C(=O)N[C@H]6CSSC[C@@H](C(=O)N[C@H](CO)[C@@H](C)O)NC(=O)[C@H]([C@@H](C)O)NC(=O)[C@H](CCCCN)NC(=O)[C@@H](Cc7c[nH]c8ccccc78)NC(=O)[C@H](Cc7ccccc7)NC6=O)CC5)nn4)cc3OC)nc2N1C1CCCC1 (stereo partly shown) [UB-181339] | 236 nM | 456 nM | 249 nM | > 1000 nM | > 1000 nM | 
8 | 746 nM | > 1000 nM | 847 nM | > 1000 nM | > 1000 nM | C[C@@H](O)[C@@H]1NC(=O)[C@H](CCCCN)NC(=O)[C@@H](Cc2c[nH]c3ccccc23)NC(=O)[C@H](Cc2ccccc2)NC(=O)[C@@H](NC(=O)[C@@H](Cc2ccccc2)NC(=O)[C@@H](N)CSC2CC(=O)N(CCC(=O)N[C@@H](CC(=O)O)C(=O)N[C@@H](CCCNC(=N)N)C(=O)N[C@@H](CC(=O)O)C(=O)N[C@@H](CC(=O)O)C(=O)N[C@@H](CSSCCOC(=O)N(CCC#Cc3ccc4c(c3)CN(C3CCC(=O)NC3=O)C4=O)C3CCC(NC(=O)N4CCN(c5ccc(Nc6ncc(Cl)c(Nc7ccccc7C(N)=O)n6)cc5)CC4)CC3)C(=O)O)C2=O)CSSC[C@@H](C(=O)N[C@H](CO)[C@@H](C)O)NC1=O (stereo partly shown) [UB-181342] (I: H-C[dF]CF[dW]KTC[Thr(ol)] / II: DRDDC(X1)-OH; linker I:1-II:N via Succinimide(1-C2H4CO,3-yl); disulfide I:3-I:8) |  |  |  |  |  | 
9 | 103 nM | 305 nM | 285 nM | 738 nM | > 1000 nM | C[C@H](NC(=O)[C@H](CC(=O)O)NC(=O)[C@H](CC(=O)O)NC(=O)[C@H](CCCNC(=N)N)NC(=O)[C@H](CC(=O)O)NC(=O)CCN1C(=O)CC(SC[C@H](N)C(=O)N[C@@H](Cc2ccccc2)C(=O)N[C@H]2CSSC[C@@H](C(=O)N[C@H](CO)[C@@H](C)O)NC(=O)[C@H]([C@@H](C)O)NC(=O)[C@H](CCCCN)NC(=O)[C@@H](Cc3c[nH]c4ccccc34)NC(=O)[C@H](Cc3ccccc3)NC2=O)C1=O)C(=O)N[C@@H](CC(N)=O)C(=O)Nc1ccc(COC(=O)N(CCC#Cc2ccc3c(c2)CN(C2CCC(=O)NC2=O)C3=O)C2CCC(NC(=O)N3CCN(c4ccc(Nc5ncc(Cl)c(Nc6ccccc6C(N)=O)n5)cc4)CC3)CC2)cc1 (stereo partly shown) [UB-181343] (I: H-CFCF[dW]KTC[Thr(ol)] / II: DRDDAN[PABC]-X2; linker I:1-II:N via Succinimide(1-C2H4CO,3-yl); disulfide I:3-I:8) |  |  |  |  |  | 
10 |  |  |  |  |  | C[C@H](NC(=O)[C@H](C)NC(=O)[C@H](CS(=O)(=O)O)NC(=O)CCN1C(=O)CC(SC[C@H](N)C(=O)N[C@H](Cc2ccccc2)C(=O)N[C@H]2CSSC[C@@H](C(=O)N[C@H](CO)[C@@H](C)O)NC(=O)[C@H]([C@@H](C)O)NC(=O)[C@H](CCCCN)NC(=O)[C@@H](Cc3c[nH]c4ccccc34)NC(=O)[C@H](Cc3ccccc3)CC2=O)C1=O)C(=O)N[C@@H](CC(N)=O)C(=O)Nc1ccc(COC(=O)N(CCC#Cc2ccc3c(c2)CN(C2CCC(=O)NC2=O)C3=O)C2CCC(NC(=O)N3CCN(c4ccc(Nc5ncc(Cl)c(Nc6ccccc6C(N)=O)n5)cc4)CC3)CC2)cc1 (stereo partly shown) [UB-181345] | 92.9 nM | 300 nM | 274 nM | > 1000 nM | > 1000 nM | 

Row | Compound | EC50 ([1]; 72 h) | EC50 ([2]; 72 h) | EC50 ([3]; 72 h) | EC50 ([4]; 72 h) | EC50 (Human Colon Cancer HT-29; 72 h) | EC50 [1, 5] | EC50 [2, 6] | EC50 [3, 7] | EC50 [4, 8] | EC50 (Human Colon Cancer HT-29; [9]) | further results
11 | CC[C@@H]1C(=O)N(C)c2cnc(Nc3ccc(-c4cn([C@H]5CC[C@@H](N(CCOCCC#Cc6cccc7c6CN(C6CCC(=O)NC6=O)C7=O)C(=O)OCc6ccc(NC(=O)[C@H](CC(N)=O)NC(=O)[C@H](C)NC(=O)[C@H](C)NC(=O)CCCCCN7C(=O)CC(SC[C@H](N)C(=O)N[C@@H](Cc8ccccc8)C(=O)N[C@H]8CSSC[C@@H](C(=O)N[C@H](CO)[C@@H](C)O)NC(=O)[C@H]([C@@H](C)O)NC(=O)[C@H](CCCCN)NC(=O)[C@@H](Cc9c[nH]c%10ccccc9%10)NC(=O)[C@H](Cc9ccccc9)NC8=O)C7=O)cc6)CC5)nn4)cc3OC)nc2N1C1CCCC1 (stereo partly shown) [UB-181334] | 989 nM | 927 nM | 286 nM | 955 nM | > 1000 nM |  |  |  |  |  | 
